Laboratory results published in patent US20260078119A1, “DEGRADER COMPOUNDS AND USES THEREOF” (Bristol-Myers Squibb Company, priority 2024, published 2026).

Target: T1, FAK (Homo sapiens, UniProt Q05397)
T1 construct: homozygous knock-in of a HiBiT tag (Promega Corporation, Madison, WI) to the C-terminus of the FAK gene in its natural genomic locus; endogenous in cells; host or cells: JHH-4-FAK-HiBiT clone d01 (CRISPR-Cas9 knock-in at the endogenous locus)
Assay: FAK-HiBiT Degradation Assay
Format: cell-based
Conditions: for DC50: JHH-4-FAK-HiBiT clone d01 cells, two hours incubation, 10-point dose response, 3-fold dilution starting at 1 μM, Nano-Glo HiBiT luminescence, read-out: FAK HiBiT EC50; for FAK HiBiT Ymin: lower limit of the four parameter fit (value A), Ymax derived using DMSO control, JHH-4-FAK-HiBiT cells, two hours
Text: To generate JHH-4-FAK-HiBiT cells for the FAK degradation assay, JHH-4 cells (Japanese Collection of Research Biosources Cell Bank, Japan) were transfected with ribonucleoprotein reagents to introduce, by CRISPR-Cas9 editing, the homozygous knock-in of a HiBiT tag (Promega Corporation, Madison, WI) to the C-terminus of the FAK gene in its natural genomic locus. Clonal cell populations were established by expanding single cells after CRISPR-Cas9 editing, with a clonal cell line named JHH-4-FAK-HiBiT clone d01 confirmed by next generation DNA sequencing to contain the expected HiBiT edited FAK gene and was selected for FAK degradation screening. Cells were selected and maintained in complete DMEM media (DMEM, 10% Heat Inactivated FBS, and Non-Essential Amino Acids at 37° C. and 5% CO2). Cells were passaged every 3-4 days by reseeding 0.5×10^6 cells in a T75 flask.
Cells were dispensed into 384-well white plates (Corning #3570, NY) that were pre-spotted with compounds using an acoustic dispenser (Echo acoustic transfer system, Beckman Coulter Life Sciences, Carlsbad, CA) as a 10-point dose response curve with a 3-fold dilution starting at 1 μM and including a DMSO control. Twenty-five microliters of media containing 2000 JHH-4-FAK-HiBiT Clone d01 cells was dispensed per well. Assay plates were incubated at 37° C. with 5% CO2 for two hours. After incubation, 25 μL of Nano-Glo HiBiT Lytic Reagent Working Solution (Promega Corporation, Madison, WI) was added to each well and incubated at room temperature for 10 minutes protected from light. After 10 minutes, luminescence was read on a PHERAstar luminometer (BMG Labtech, Cary, NC).
To determine the half-maximal effective concentration (EC50) values for FAK-HiBIT degradation, a four parameter logistic model was used: (Sigmoidal Dose-Response Model)(FIT=(A+((B−A)/1+((C/x)^D)))) where C is the inflection point (EC50), D is the Hill slope, and A and B are the low and high limits of the fit respectively). The lower limit of the fit (value A) is referred to as Ymin. The maximum limit constraint, Ymax, was derived using DMSO control. The curves were processed and evaluated using Dotmatics Atlas (Insightful Science, LLC, Boston, MA).

T1 sequence (Q05397 whole entry): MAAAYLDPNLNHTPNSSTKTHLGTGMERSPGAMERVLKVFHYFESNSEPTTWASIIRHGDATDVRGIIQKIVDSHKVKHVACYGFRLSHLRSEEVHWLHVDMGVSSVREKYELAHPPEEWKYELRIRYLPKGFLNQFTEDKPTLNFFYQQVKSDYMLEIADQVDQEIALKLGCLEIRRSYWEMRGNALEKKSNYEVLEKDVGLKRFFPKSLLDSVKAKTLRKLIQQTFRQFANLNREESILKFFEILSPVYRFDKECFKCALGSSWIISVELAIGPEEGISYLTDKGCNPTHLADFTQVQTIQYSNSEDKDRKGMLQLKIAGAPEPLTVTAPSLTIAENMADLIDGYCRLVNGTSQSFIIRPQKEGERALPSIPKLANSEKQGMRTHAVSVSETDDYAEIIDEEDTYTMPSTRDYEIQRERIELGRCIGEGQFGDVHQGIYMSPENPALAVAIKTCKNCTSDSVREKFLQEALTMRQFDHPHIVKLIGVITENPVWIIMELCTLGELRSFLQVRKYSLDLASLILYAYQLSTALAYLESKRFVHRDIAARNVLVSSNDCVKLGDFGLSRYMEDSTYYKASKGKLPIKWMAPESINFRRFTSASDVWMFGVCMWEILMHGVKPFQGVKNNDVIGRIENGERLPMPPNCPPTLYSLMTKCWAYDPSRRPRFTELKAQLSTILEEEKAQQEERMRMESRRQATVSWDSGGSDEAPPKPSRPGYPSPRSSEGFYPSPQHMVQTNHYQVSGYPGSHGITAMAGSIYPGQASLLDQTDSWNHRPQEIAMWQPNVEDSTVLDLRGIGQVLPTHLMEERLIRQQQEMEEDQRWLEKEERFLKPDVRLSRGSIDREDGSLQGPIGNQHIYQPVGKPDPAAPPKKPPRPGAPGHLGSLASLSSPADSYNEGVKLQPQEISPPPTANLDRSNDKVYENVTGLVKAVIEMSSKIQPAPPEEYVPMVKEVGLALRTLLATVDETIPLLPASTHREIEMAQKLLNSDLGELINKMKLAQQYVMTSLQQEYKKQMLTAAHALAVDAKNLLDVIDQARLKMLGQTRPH

DC50 [µM]	FAK HiBiT Ymin	SMILES
0.0141	26.48	CC(C)Nc1cc(-c2ccc(C#N)cc2F)c2cnn(Cc3ccc4c(c3)CN(C3CCC(=O)NC3=O)C4=O)c2n1 (stereo not drawn) [Example 92, 4-(1-{[2-(2,6-dioxopiperidin-3-yl)-1-oxo-2,3-dihydro-1H-isoindol-5-yl]methyl}-6-[(propan-2-yl)amino]-1H-pyrazolo[3,4-b]pyridin-4-yl)-3-fluorobenzonitrile]
0.0467	18.51	Cc1cccnc1-c1cc(N2CC(F)C2)nc2c1cnn2Cc1ccc2c(c1)CN(C1CCC(=O)NC1=O)C2=O (stereo not drawn) [Example 112, 3-(5-{[6-(3-fluoroazetidin-1-yl)-4-(3-methylpyridin-2-yl)-1H-pyrazolo[3,4-b]pyridin-1-yl]methyl}-1-oxo-2,3-dihydro-1H-isoindol-2-yl)piperidine-2,6-dione]
0.0305	13.98	CC(C)Nc1cc(-c2ncc(C#N)cc2Cl)c2cnn(Cc3ccc4c(c3)CN(C3CCC(=O)NC3=O)C4=O)c2n1 (stereo not drawn) [Example 103, 5-chloro-6-(1-{[2-(2,6-dioxopiperidin-3-yl)-1-oxo-2,3-dihydro-1H-isoindol-5-yl]methyl}-6-[(propan-2-yl)amino]-1H-pyrazolo[3,4-b]pyridin-4-yl)pyridine-3-carbonitrile]
0.0981	74.73	O=C1CCC(N2Cc3cc(Cn4ncc5c(-c6ccc(C7(O)CCOCC7)cn6)cc(N6CC(F)C6)nc54)ccc3C2=O)C(=O)N1 (stereo not drawn) [Example 122, 3-(5-{[6-(3-fluoroazetidin-1-yl)-4-[5-(4-hydroxyoxan-4-yl)pyridin-2-yl]-1H-pyrazolo[3,4-b]pyridin-1-yl]methyl}-1-oxo-2,3-dihydro-1H-isoindol-2-yl)piperidine-2,6-dione]
≥ 1	93.99	Cc1ncccc1-c1cc(N2CC(F)C2)nc2c1cnn2Cc1ccc2c(c1)CN(C1CCC(=O)NC1=O)C2=O (stereo not drawn) [Example 139, 3-(5-{[6-(3-fluoroazetidin-1-yl)-4-(2-methylpyridin-3-yl)-1H-pyrazolo[3,4-b]pyridin-1-yl]methyl}-1-oxo-2,3-dihydro-1H-isoindol-2-yl)piperidine-2,6-dione]

More lines, now with the values behind:

SMILES	DC50 [µM]	FAK HiBiT Ymin
CN(C)c1nc(-c2ccc(C#N)cc2Cl)c2ccn(Cc3ccc4c(c3)CN(C3CCC(=O)NC3=O)C4=O)c2n1 (stereo not drawn) [Example 27, 3-chloro-4-(2-(dimethylamino)-7-((2-(2,6-dioxopiperidin-3-yl)-1-oxoisoindolin-5-yl)methyl)-7H-pyrrolo[2,3-d]pyrimidin-4-yl)benzonitrile]	0.00868	2.64
N#Cc1ccc(-c2cc(N3CCC3)nc3c2cnn3Cc2ccc3c(c2)CN(C2CCC(=O)NC2=O)C3=O)c(Cl)c1 (stereo not drawn) [Example 58, 4-[6-(azetidin-1-yl)-1-{[2-(2,6-dioxopiperidin-3-yl)-1-oxo-2,3-dihydro-1H-isoindol-5-yl]methyl}-1H-pyrazolo[3,4-b]pyridin-4-yl]-3-chlorobenzonitrile]	0.00343	7.90
N#Cc1cnc(-c2cc(N3CCC3)nc3c2cnn3Cc2ccc3c(c2)CN(C2CCC(=O)NC2=O)C3=O)c(F)c1 (stereo not drawn) [Example 84, 6-[6-(azetidin-1-yl)-1-{[2-(2,6-dioxopiperidin-3-yl)-1-oxo-2,3-dihydro-1H-isoindol-5-yl]methyl}-1H-pyrazolo[3,4-b]pyridin-4-yl]-5-fluoropyridine-3-carbonitrile]	0.0103	19.19
O=C1CCC(N2Cc3cc(Cn4ncc5c(-c6ncccc6Cl)cc(N6CCC6)nc54)ccc3C2=O)C(=O)N1 (stereo not drawn) [Example 88, 3-(5-{[6-(azetidin-1-yl)-4-(3-chloropyridin-2-yl)-1H-pyrazolo[3,4-b]pyridin-1-yl]methyl}-1-oxo-2,3-dihydro-1H-isoindol-2-yl)piperidine-2,6-dione]	0.013	10.98
